Laboratory results published in patent US20030108619A1, “Bone-strengthening agents, food compositions for strengthening bone and feed compositions for strengthening bone” (priority 2000, published 2003).

Legend:
femora [1] = assay: Amount of calcium in femora, Example 2; format: in vivo, rat; settings: 50-weeks old rats
Description: (§1) 2. CPP-administered group: Basic feed+CPP (40 mg/100 g body weight)
(§2) 3. Genistein-administered group: Basic feed+genistein (50 μg/100 g body weight)
(§3) 4. CPP+genistein-administered group: Basic feed+CPP (40 mg/100 g body weight)+genistein (50 μg/100 g body weight)
(§4) As the CPP, a solution of CPP-III (casein phosphopeptide content 85%) manufactured by Meiji Seika Kaisha, Ltd., dissolved in distilled water was used. As the genistein, a reagent (manufactured by Sigma Chemical Company in U.S. A.) extracted from soybean and highly purified, dissolved in a 10% ethanol solution was used.
(§5) Animal groups each consisting of five animals were fed with the basic feed under constant temperature and constant humidity conditions of room temperature 25° C., and 55% humidity. In addition, the control group was administered with 1 ml/100 g body weight of purified distilled water and the other groups were each orally administered with CPP and/or genistein in the above-mentioned amounts once a day for 14 days by using a stomach tube. After 24 hours from the last administration, the rats were sacrificed and the femora were extracted. The extracted femora were used for the measurement of bone components as shown below.
(§6) After washing the extracted femora in a cold 0.25 M sucrose solution to remove a soft tissue and drying it in a drier at 100° C. for about 16 hours, the dry weight of the femora was measured. After the measurement, the extracted femora were divided into diaphysis (cortical bone) and metaphysis (trabecular bone) and the amount of calcium in each of them was measured. That is, the obtained diaphysial tissue and metaphysial tissue of the femora were each charged in a test tube, to which was added 3 ml of concentrated nitric acid to decompose them at 120° C. for 24 hours. The solutions were used as sample solutions and the amount of calcium therein was determined by using an atomic absorption spectrophotometer. The amounts of calcium were expressed in terms of mg per 1 g of the dry weight of the bone tissue.
(§7) Significant tests of respective measured values were performed by using Student's t-test. Values with a risk factor of 5% or less were taken as significant.
1) The materials and methods in Example 2 were the same as in Example 1 except that 50-weeks old normal female Wistar rats obtained from Japan SLC, Inc. (Hamamatsu, Japan) were used as test animals.

[2] = test system: bone alkaline phosphatase; assay: Activity of femoral alkaline phosphatase, Example 1; format: in vivo, rat; settings: 5-weeks old rats
Description: (§8) 5-weeks old female Wistar rats (Convention) obtained from Japan SLC, Inc. (Hamamatsu, Japan) were used.
as §1, §2, §3, §4, §5
(§9) The diaphysial tissue and metaphysial tissue of the femora obtained as described above were each dipped in 3 ml of a cold 6.5 mM barbital buffer (pH 7.4) and cut into small pieces and homogenized by using a Potter-Elvehjem homogenizer followed by ultrasonic treatment for 60 seconds for crushing. Further, the homogenate was centrifuged for 5 minutes at 600×g and the supernatant fraction was used as a crude enzyme solution.
(§10) The activity of bone alkaline phosphatase was measured in accordance with the method of Walter and Schutt (Bergmeyer H. U. (ed.). Methods of Enzymatic Analysis, Vol. 1-2, Academic Press, New York, pp. 856-860, 1974). The enzymatic reaction was initiated by adding 0.05 ml of the above-mentioned crude enzyme solution to 2 ml of 0.1M diethanolamine hydrochloride buffer (pH 9.8) containing disodium p-nitrophenyiphosphate as a substrate. The reaction was performed by incubation at 37° C. for 30 minutes. The reaction was terminated by adding 10 ml of 0.05N NaOH and the activity was expressed in terms of the amount (μmol) of free p-nitrophenol per 1 minute per the mass (mg) of the enzyme protein used. The concentration of the protein was measured in accordance with the method of Lowry et al. (J. Biol. Chem., 193: 265-273, 1951).
as §7

[3] = test system: bone alkaline phosphatase; assay: Activity of femoral alkaline phosphatase, Example 2; format: in vivo, rat; settings: 50-weeks old rats
Description: as §1, §2, §3, §4, §5, §9, §10
Significant tests of respective measured values were performed by using Student's t-test. Values with a risk factor of 5% or less were taken as significant. […]

femora [4] = assay: Amount of DNA in femora, Example 1; format: in vivo, rat; settings: 5-weeks old rats
Description: (§11) 5-weeks old female Wistar rats (Convention) obtained from Japan SLC, Inc. (Hamamatsu, Japan) were used. 2. CPP-administered group: Basic feed+CPP (40 mg/100 g body weight) 3. Genistein-administered group: Basic feed+genistein (50 μg/100 g body weight) 4. CPP+genistein-administered group: Basic feed+CPP (40 mg/100 g body weight)+genistein (50 μg/100 g body weight) As the CPP, a solution of CPP-III (casein phosphopeptide content 85%) manufactured by Meiji Seika Kaisha, Ltd., dissolved in distilled water was used. As the genistein, a reagent (manufactured by Sigma Chemical Company in U.S. A.) extracted from soybean and highly purified, dissolved in a 10% ethanol solution was used. Animal groups each consisting of five animals were fed with the basic feed under constant temperature and constant humidity conditions of room temperature 25° C., and 55% humidity. In addition, the control group was administered with 1 ml/100 g body weight of purified distilled water and the other groups were each orally administered with CPP and/or genistein in the above-mentioned amounts once a day for 14 days by using a stomach tube. After 24 hours from the last administration, the rats were sacrificed and the femora were extracted. The extracted femora were used for the measurement of bone components as shown below. The diaphysial tissue and metaphysial tissue of the femora thus obtained were each crushed in 4.0 ml of a cold 0.1 N NaOH solution after homogenization of the bone tissue, shaken at 4° C. for 24 hours and extracted. After the alkali extraction, centrifugation treatment was performed at 1,000×g for 5 minutes and the supernatant fraction was used as a sample for the measurement of DNA. The measurement of the amount of DNA was performed in accordance with the method of Ceriotti (J. Biol. Chem., 214: 39-77, 1955). To a test tube containing 2.0 ml of a sample were added 1.0 ml of concentrated hydrochloric acid and 1.0 ml of a 0.04% indole solution and the test tube was shut with an aluminum cap, followed by heating on a boiling water bath for 10 minutes and then quenched on ice to terminate the reaction. Extraction with 4.0 ml of chloroform for 3 to 4 minutes was repeated several times and the amount of DNA was measured on a spectrophotometer (490 nm). The amount of DNA was calculated per wet weight (g) of bone tissue. Significant tests of respective measured values were performed by using Student's t-test. Values with a risk factor of 5% or less were taken as significant.

femora [5] = assay: Dry weight of femora, Example 2; format: in vivo, rat
Description: as §1, §2, §3, §4
Animal groups each consisting of five animals were fed with the basic feed under constant temperature and constant humidity conditions of room temperature 25° C., and 55% humidity. […]
(§12) After washing the extracted femora in a cold 0.25 M sucrose solution to remove a soft tissue and drying it in a drier at 100° C. for about 16 hours, the dry weight of the femora was measured. After the measurement, the extracted femora were divided into diaphysis (cortical bone) and metaphysis (trabecular bone) and the amount of calcium in each of them was measured. […] The solutions were used as sample solutions and the amount of calcium therein was determined by using an atomic absorption spectrophotometer. […]
(§13) Significant tests of respective measured values were performed by using Student's t-test. […]

osteoblasts = settings: Res. Exp. Med. 197: 101-107, 1997; cited from earlier work
osteoclasts [6] = settings: culture system using metaphysial tissue in the femora of old rats; Biochem. Pharmacol., 55: 71-76, 1998; cited from earlier work
femora [7] = assay: Amount of DNA in femora, Example 2; format: in vivo, rat; settings: 50-weeks old rats
Description: as §11, with “2.” for “5-weeks old female Wistar rats (Convention) obtained from Japan SLC, Inc. (Hamamatsu, Japan) were used. 2.”, “significant. 1) The materials and methods in Example 2 were the same as in Example 1 except that 50-weeks old normal female Wistar rats obtained from Japan SLC, Inc. (Hamamatsu, Japan) were used as test animals.” for “significant.”

femora [8] = assay: Amount of calcium in femora, Example 1; format: in vivo, rat; settings: 5-weeks old rats
Description: as §8, §1, §2, §3, §4, §5, §6, §7

femora [9] = assay: Dry weight of femora, Example 1; format: in vivo, rat
Description: as §8, §1, §2, §3
As the CPP, a solution of CPP-III (casein phosphopeptide content 85%) manufactured by Meiji Seika Kaisha, Ltd., dissolved in distilled water was used. As the genistein, a reagent (manufactured by Sigma Chemical Company in U.S. A.) extracted from soybean and highly purified, dissolved in a 10% ethanol solution was used. […]
as §12, §13

osteoclasts [10] = settings: Biol. Pharm. Bull., 22, 805-809, 1999; cited from earlier work

O=c1c(-c2ccc(O)cc2)coc2cc(O)cc(O)c12 [Genistein, genistein]
Amount of calcium in the diaphysis as compared with that of the control group (femora [1]; diaphysis): 1.07 times
Amount of calcium in femora in the metaphysis as compared with that of the control group (femora [1]; metaphysis): 1.08 times
Amount of bone calcium, Diaphysis (femora [1]; oral 14 days, diaphysis): 229.2 ± 3.4 mg/g dry weight
Amount of bone calcium, Metaphysis (femora [1]; oral 14 days, metaphysis): 202.1 ± 3.8 mg/g dry weight
Activity of femoral alkaline phosphatase in the diaphysis as compared with that of the control group ([2]; diaphysis): 1.04 times
Activity of femoral alkaline phosphatase in the metaphysis as compared with that of the control group ([2]; metaphysis): 1.04 times
The activity of alkaline phosphatase, Diaphysis ([2]; oral 14 days, diaphysis): 1.809 ± 0.014 μmol/min/mg protein
The activity of alkaline phosphatase, Metaphysis ([2]; oral 14 days, metaphysis): 1.853 ± 0.017 μmol/min/mg protein
Activity of femoral alkaline phosphatase in the diaphysis as compared with that of the control group ([3]; diaphysis): 1.12 times
Activity of femoral alkaline phosphatase in the metaphysis as compared with that of the control group ([3]; metaphysis): 1.12 times
The activity of alkaline phosphatase, Diaphysis ([3]; oral 14 days, diaphysis): 0.653 ± 0.019 μmol/min/mg protein
The activity of alkaline phosphatase, Metaphysis ([3]; oral 14 days, metaphysis): 0.744 ± 0.020 μmol/min/mg protein
Amount of DNA in the diaphysis as compared with that of the control group (femora [4]; diaphysis): 1.06 times
Amount of DNA in the metaphysis as compared with that of the control group (femora [4]; metaphysis): 1.09 times
Amount of DNA, Diaphysis (femora [4]; oral 14 days, diaphysis): 1.895 ± 0.013 mg/g wet weight of bone
Amount of DNA, Metaphysis (femora [4]; oral 14 days, metaphysis): 2.894 ± 0.034 mg/g wet weight of bone
Dry weight of femora (femora [5]; 50-weeks old female Wistar rats, oral once a day for 14 days, CPP 40 mg/100 g, genistein 50 μg/100 g body weight): 475.3 ± 8.35 mg
Dry weight of femora as compared with that of the control group (femora [5]; 50-weeks old rats, oral 14 days): 1.08 times
Amount of DNA (index of increase in bone mineral content and cell growth by osteoblasts) (osteoblasts): causes an increase in the amount of DNA
Bone resorption by osteoclasts (osteoclasts [6]): directly inhibits the bone resorption by osteoclasts
Amount of DNA in the diaphysis as compared with that of the control group (femora [7]; diaphysis): 1.14 times
Amount of DNA in the metaphysis as compared with that of the control group (femora [7]; metaphysis, printed under [Amount of DNA in Femora]): 1.05 times
Amount of DNA, Diaphysis (femora [7]; oral 14 days, diaphysis): 1.391 ± 0.043 mg/g wet weight of bone
Amount of DNA, Metaphysis (femora [7]; oral 14 days, metaphysis): 2.836 ± 0.041 mg/g wet weight of bone
Amount of calcium in the diaphysis as compared with that of the control group (femora [8]; diaphysis): 1.12 times
Amount of calcium in the metaphysis as compared with that of the control group (femora [8]; metaphysis): 1.07 times
Bone calcium, Diaphysis (femora [8]; oral 14 days, diaphysis): 225.1 ± 3.23 mg/g dry weight
Bone calcium, Metaphysis (femora [8]; oral 14 days, metaphysis): 204.1 ± 3.56 mg/g dry weight
Dry weight of femora (femora [9]; 5-weeks old female Wistar rats, oral once a day for 14 days, CPP 40 mg/100 g, genistein 50 μg/100 g body weight): 230.4 ± 1.20 mg
Dry weight of femora as compared with that of the control group (femora [9]; 5-weeks old rats, oral 14 days): 1.12 times
Effect of inhibiting the function of osteoclasts, potency relative to daidzein (osteoclasts [10]): 10 times
